Assay results from patent US6903119B1, “Amino acid derivatives and drugs containing the same as the active ingredient” (Ono Pharmaceutical Co., Ltd., priority 1998, dated 2005).
Structures can show the parent of a compound that is named as a salt.

Biological target: T1, N-type calcium channel (Homo sapiens, UniProt Q00975)
T1 construct: Cell line was differentiated according to the method described in FEBS Lett. (1988) 235 178-182; endogenous in cells; host or cells: unnamed cell line, differentiated per FEBS Lett. (1988) 235 178-182
T1 sequence (Q00975 whole entry): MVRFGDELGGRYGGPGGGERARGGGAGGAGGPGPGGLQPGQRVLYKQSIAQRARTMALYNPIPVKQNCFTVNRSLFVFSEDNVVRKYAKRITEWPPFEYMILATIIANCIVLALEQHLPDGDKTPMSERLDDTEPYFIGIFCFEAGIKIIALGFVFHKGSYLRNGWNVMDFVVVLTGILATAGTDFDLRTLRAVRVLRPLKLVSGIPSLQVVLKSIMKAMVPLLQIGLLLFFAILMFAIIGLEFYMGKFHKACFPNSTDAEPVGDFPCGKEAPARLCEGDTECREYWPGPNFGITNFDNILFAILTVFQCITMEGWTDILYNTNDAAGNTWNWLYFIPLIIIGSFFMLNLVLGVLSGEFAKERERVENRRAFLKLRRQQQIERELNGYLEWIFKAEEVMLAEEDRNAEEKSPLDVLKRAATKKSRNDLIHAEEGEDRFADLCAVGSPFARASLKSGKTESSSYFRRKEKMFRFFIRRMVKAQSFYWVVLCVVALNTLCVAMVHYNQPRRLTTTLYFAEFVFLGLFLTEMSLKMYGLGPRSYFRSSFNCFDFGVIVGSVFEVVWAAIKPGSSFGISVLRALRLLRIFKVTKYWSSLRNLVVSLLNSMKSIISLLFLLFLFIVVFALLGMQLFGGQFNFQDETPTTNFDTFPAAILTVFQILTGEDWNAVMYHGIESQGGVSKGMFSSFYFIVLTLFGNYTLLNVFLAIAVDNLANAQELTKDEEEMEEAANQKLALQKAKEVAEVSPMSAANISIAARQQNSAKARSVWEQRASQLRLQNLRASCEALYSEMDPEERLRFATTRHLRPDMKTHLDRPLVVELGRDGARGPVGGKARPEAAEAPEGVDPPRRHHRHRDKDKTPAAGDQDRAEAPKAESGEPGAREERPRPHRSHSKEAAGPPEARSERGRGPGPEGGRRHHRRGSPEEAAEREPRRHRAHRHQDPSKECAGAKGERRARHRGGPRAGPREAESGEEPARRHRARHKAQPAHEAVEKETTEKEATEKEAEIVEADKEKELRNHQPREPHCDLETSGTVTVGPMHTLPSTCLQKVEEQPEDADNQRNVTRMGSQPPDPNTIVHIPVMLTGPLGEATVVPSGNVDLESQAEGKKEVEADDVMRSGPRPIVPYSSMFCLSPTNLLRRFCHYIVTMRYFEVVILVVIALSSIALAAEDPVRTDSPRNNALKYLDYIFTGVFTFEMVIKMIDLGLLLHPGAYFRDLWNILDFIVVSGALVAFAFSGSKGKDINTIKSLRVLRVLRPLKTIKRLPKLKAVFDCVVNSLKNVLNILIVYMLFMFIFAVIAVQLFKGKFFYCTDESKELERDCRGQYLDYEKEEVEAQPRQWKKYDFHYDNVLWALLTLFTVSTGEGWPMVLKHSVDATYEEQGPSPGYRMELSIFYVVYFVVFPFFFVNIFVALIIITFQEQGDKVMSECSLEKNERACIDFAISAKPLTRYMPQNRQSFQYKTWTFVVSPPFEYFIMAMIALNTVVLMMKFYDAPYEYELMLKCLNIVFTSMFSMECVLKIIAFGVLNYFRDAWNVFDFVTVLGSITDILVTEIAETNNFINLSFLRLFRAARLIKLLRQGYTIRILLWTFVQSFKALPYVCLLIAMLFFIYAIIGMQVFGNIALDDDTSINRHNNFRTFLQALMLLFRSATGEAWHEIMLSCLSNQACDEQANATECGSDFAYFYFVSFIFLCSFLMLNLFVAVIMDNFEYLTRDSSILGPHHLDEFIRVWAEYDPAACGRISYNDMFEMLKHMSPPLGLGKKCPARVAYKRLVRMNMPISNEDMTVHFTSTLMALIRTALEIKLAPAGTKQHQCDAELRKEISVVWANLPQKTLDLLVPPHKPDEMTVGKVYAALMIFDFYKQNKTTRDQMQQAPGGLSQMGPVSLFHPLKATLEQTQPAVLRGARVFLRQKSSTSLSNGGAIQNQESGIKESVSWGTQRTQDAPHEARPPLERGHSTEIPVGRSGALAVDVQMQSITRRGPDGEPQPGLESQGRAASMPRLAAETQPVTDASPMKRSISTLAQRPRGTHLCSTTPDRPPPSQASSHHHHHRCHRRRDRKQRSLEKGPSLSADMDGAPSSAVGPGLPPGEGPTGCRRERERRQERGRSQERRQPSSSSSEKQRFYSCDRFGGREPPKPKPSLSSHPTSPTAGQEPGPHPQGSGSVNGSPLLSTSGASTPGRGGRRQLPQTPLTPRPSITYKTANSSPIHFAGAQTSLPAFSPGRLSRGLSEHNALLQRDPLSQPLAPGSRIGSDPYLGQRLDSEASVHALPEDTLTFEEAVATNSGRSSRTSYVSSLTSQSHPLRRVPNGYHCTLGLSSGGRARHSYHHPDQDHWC
Assay: Determination of inhibitory activity on N-type calcium channel (Fura-2 calcium influx, KCl depolarization, with nifedipine)
Type: cell-based
Conditions: compound at final concentration of 3 μM, depolarized with 80 mM KCl, Fura-2 fluorescence, read-out: Inhibitory effect on calcium flow (%)
Method: Determination of Inhibitory Activity on N-type Calcium Channel:
Cell line was differentiated according to the method described in FEBS Lett. (1988) 235 178-182. The cell was loaded with fluoriescent reagent, Fura-2 AM (at the final concentration of 10 μM), at 37° C. for 30 minutes and suspended in Krebs-buffer containing HEPES (25 mM) to obtain the cell suspension. The obtained cell suspension was incubated in the presence or absence of the compounds of the present invention with nifedipine for 5 minutes. The cell was depolarized by adding potassium chloride solution (at the final concentration of 80 mM) thereto and then a fluorescence intensity at the emission wavelength of 500 nm excited by the UV of 340 nm and 380 nm alternately was measured using the intracellular calcium analyzer (Nippon Bunko Co., CAF-110). The inhibitory activity of the compound of the present invention (at the final concentration of 3 μM) on calcium influx into the cell was calculated from the difference in changing the fluorescence intensity at peak (ΔR) according to the following equation. [formula]

| inhibition at 3 µM [%] | Structure (SMILES) |
| --- | --- |
| 89 | CC(C)(C)CC(=O)N1CSC[C@H]1C(=O)N[C@@H](CSCC1CCCCC1)C(=O)NC1CCN(Cc2ccccc2)CC1 [11 (2), (2R)-N-(1-benzylpiperidin-4-yl)-3-cyclohexylmethylthio-2-((4R)-3-(3,3-dimethylbutyryl)thiazolidin-4-ylcarbonylamino)propanamide.hydrochloride] |
| 81 | COCCOC(=O)N1CSC[C@H]1C(=O)N[C@@H](CSCC1CCCCC1)C(=O)NC1CCN(Cc2ccccc2)CC1 [compound 11] |
